≈ marks a conversion by molar mass, not a printed value. Calls of active or inactive are those of the source. No cut-off for these calls is given here.
How the values were obtained:
[1] = molecular target: Lanosterol 14-alpha demethylase (Candida albicans (strain SC5314 / ATCC MYA-2876) (Yeast), UniProt P10613); experiment: Inhibition of CYP51 in Candida albicans ATCC SC5314 incubated for 30 mins using eburicol as substrate in presence of NADPH by HPLC analysis
Nakaseomyces glabratus = experiment: Antifungal activity against Candida glabrata ATCC 0001 assessed as fungal growth inhibition measured after 72 hrs by CLSI protocol based liquid medium dilution method; format: functional
Candida albicans [2] = experiment: Induction of morphological changes in Candida albicans assessed as structural damage in fungal cell membrane at 4 ug/ml measured after 48 hrs by TEM analysis; format: functional, organism-based; details: dose 4.0 µg/ml
[3] = Nephrotoxicity in mouse infected with Candida albicans ATCC SC5314 assessed as change in plasma BUN level at 4 mg/kg, ip administered ever other day for 12 days; format: toxicity, organism-based; details: in vivo, 288 h, time 12 day
Candida albicans [4] = experiment: Induction of apoptosis in Candida albicans ATCC SC5314 cells assessed as late apoptotic cells at 8 ug/ml incubated for 72 hrs by Annexin V-FITC/PI staining based flow cytometry method (reference value: 0.12%); format: functional; details: dose 8 µg/ml
Aspergillus fumigatus = experiment: Antifungal activity against Aspergillus fumigatus KM8001 assessed as fungal growth inhibition measured after 72 hrs by CLSI protocol based liquid medium dilution method; format: functional
Mus musculus [5] = experiment: In vivo antifungal activity against Candida albicans ATCC SC5314 infected mouse assessed as increase in body weight at 4 mg/kg, ip administered ever other day for 12 days; format: functional, organism-based; details: time 12.0 day
Candida albicans [6] = experiment: Induction of morphological changes in Candida albicans assessed as decrease in osmotic pressure of cells at 4 ug/ml measured after 72 hrs by TEM analysis; format: functional, organism-based; details: dose 4.0 µg/ml
Mus musculus [7] = experiment: In vivo antifungal activity against Candida albicans ATCC SC5314 infected mouse assessed as regular arrangement of endothelial tissue at 4 mg/kg, ip administered ever other day for 12 days by hematoxyin-eosin staining based microscopic analysis; format: functional, organism-based; details: time 12.0 day
[8] = Toxicity in mouse infected with Candida albicans ATCC SC5314 assessed as pathological changes in liver at 4 mg/kg, ip administered ever other day for 12 days by hematoxylin and eosin staining based histopathological analysis; format: organism-based; details: in vivo, 288 h, time 12 day
Mus musculus [9] = experiment: In vivo antifungal activity against Candida albicans ATCC SC5314 infected mouse model assessed as regular arrangement of intercellular space at 4 mg/kg, ip administered ever other day for 12 days by hematoxyin-eosin staining based microscopic analysis; format: functional, organism-based; details: time 12.0 day
Candida albicans [10] = experiment: Antifungal activity against Candida albicans ATCC 10231 assessed as fungal growth inhibition measured after 72 hrs by CLSI protocol based liquid medium dilution method; format: functional
Candida albicans [11] = experiment: Antifungal activity against fluconazole resistant Candida albicans strain 901 assessed as decrease in fungal cell density at 4 ug/ml by fluorescence microscopy; format: functional, organism-based; details: dose 4.0 µg/ml
Candida albicans [12] = experiment: Antifungal activity against fluconazole resistant Candida albicans strain CaR assessed as fungal growth inhibition measured after 72 hrs by CLSI protocol based liquid medium dilution method; format: functional

Sequence of Lanosterol 14-alpha demethylase (P10613 whole entry): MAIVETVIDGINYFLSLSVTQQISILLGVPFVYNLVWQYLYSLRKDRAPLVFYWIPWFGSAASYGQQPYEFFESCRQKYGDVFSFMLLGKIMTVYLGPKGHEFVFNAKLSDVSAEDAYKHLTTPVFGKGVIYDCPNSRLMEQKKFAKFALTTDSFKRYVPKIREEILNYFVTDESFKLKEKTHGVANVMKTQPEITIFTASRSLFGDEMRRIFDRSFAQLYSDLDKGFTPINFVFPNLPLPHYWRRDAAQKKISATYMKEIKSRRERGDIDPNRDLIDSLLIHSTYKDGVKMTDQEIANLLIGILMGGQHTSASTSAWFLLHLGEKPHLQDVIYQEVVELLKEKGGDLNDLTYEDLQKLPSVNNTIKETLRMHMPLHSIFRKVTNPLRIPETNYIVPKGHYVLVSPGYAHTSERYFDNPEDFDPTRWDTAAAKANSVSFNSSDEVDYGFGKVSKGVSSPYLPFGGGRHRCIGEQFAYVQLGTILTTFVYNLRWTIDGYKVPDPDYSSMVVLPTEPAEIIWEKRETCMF

## CC(C)[C@H](NC(=O)c1cccc2c1OCCO2)C(=O)N[C@@H](Cn1cncn1)c1ccccc1
[1]
  IC50: 220 nM
Nakaseomyces glabratus
  MIC50: 0.25 µg/mL (≈ 0.556 µM)
Candida albicans [2]
  Activity: Active
[3]
  Activity: 15.8 mmol/L
Candida albicans [4]
  Activity: 1.78%
Aspergillus fumigatus
  MIC50: 2 µg/mL (≈ 4.45 µM)
Mus musculus [5]
  Activity: Active
Candida albicans [6]
  Activity: Active
Mus musculus [7]
  Activity: Active
[8]
  Activity: Non-Toxic
Mus musculus [9]
  Activity: Active
Candida albicans [10]
  MIC50: 0.125 µg/mL (≈ 0.278 µM)
Candida albicans [11]
  Activity: Active
Candida albicans [12]
  MIC50: 0.5 µg/mL (≈ 1.11 µM)
